PMC6445542 (Marmara pharmaceutical journal, 2013)

Each molecule was assayed against HCV NS5B RNA dependent RNA polymerase (NS5BCΔ21) (Hepatitis C virus genotype 1b, UniProt P26663) (assay: HCV NS5B RdRp primer dependent elongation). Conditions: not given.
Assay type: biochemical
`CCCCNC(=S)NNC(=O)CC1(CC)OCCc2c1[nH]c1c(CC)cccc21` (centres unmarked) [Compound 3d, 1-[2-(1,8-Diethyl-1,3,4,9-tetrahydropyrano[3,4-b]indole-1-yl)acetyl]-4-butyl thiosemicarbazide] was tested, and the IC50 was 29.2 ± 1.4 µM.

Same assay, conditions: read-out: % Inhibition (100 μM) of HCV NS5B RdRp activity
Molecule `CCc1cccc2c3c([nH]c12)C(CC)(CC(=O)O)OCC3` (racemic) [Etodolac, (R,S) 2-[1,8-diethyl-1,3,4-tetrahydropyrano (3,4-b)indole-1-yl]acetic acid, reference compound] has an inhibition at 100 µM of roughly 10%.
Work on `CCNC(=S)NNC(=O)CC1(CC)OCCc2c1[nH]c1c(CC)cccc21` (centres unmarked) [Compound 3b, 1-[2-(1,8-Diethyl-1,3,4,9-tetrahydropyrano[3,4-b]indole-1-yl)acetyl]-4-ethyl thiosemicarbazide] yielded an inhibition at 100 µM of 49.9 ± 0.3%.
`CCCNC(=S)NNC(=O)CC1(CC)OCCc2c1[nH]c1c(CC)cccc21` (centres unmarked) [Compound 3c, 1-[2-(1,8-Diethyl-1,3,4,9-tetrahydropyrano[3,4-b]indole-1-yl)acetyl]-4-propyl thiosemicarbazide] was tested, and the inhibition at 100 µM was 34.6 ± 1.1%.
For `CCCCNC(=S)NNC(=O)CC1(CC)OCCc2c1[nH]c1c(CC)cccc21` (centres unmarked) [Compound 3d, 1-[2-(1,8-Diethyl-1,3,4,9-tetrahydropyrano[3,4-b]indole-1-yl)acetyl]-4-butyl thiosemicarbazide], the inhibition at 100 µM was 68.7 ± 0.9%.
`CCc1cccc2c3c([nH]c12)C(CC)(CC(=O)NNC(=S)NCc1ccccc1)OCC3` (centres unmarked) [Compound 3f, 1-[2-(1,8-Diethyl-1,3,4,9-tetrahydropyrano[3,4-b]indole-1-yl)acetyl]-4-benzyl thiosemicarbazide] gave an inhibition at 100 µM of 23.4 ± 1.8%.
For `CCc1cccc2c3c([nH]c12)C(CC)(CC(=O)NNC(=S)Nc1ccccc1)OCC3` (centres unmarked) [Compound 3g, 1-[2-(1,8-Diethyl-1,3,4,9-tetrahydropyrano[3,4-b]indole-1-yl)acetyl]-4-phenyl thiosemicarbazide], the inhibition at 100 µM was 38.9 ± 0.9%.
`CCc1cccc2c3c([nH]c12)C(CC)(CC(=O)NNC(=S)NC1CCCCC1)OCC3` (centres unmarked) [Compound 3h, 1-[2-(1,8-Diethyl-1,3,4,9-tetrahydropyrano[3,4-b]indole-1-yl)acetyl]-4-cyclohexyl thiosemicarbazide] showed an inhibition at 100 µM of 47.4 ± 0.9%.
